Data reported in ChEMBL document CHEMBL3045592, “Studies of O,O-dimethyl α-(2,4-dichlorophenoxyacetoxy)ethylphosphonate (HW02) as a new herbicide. 1. Synthesis and herbicidal activity of HW02 and analogues as novel inhibitors of pyruvate dehydrogenase complex” (J Agric Food Chem, 2011).

Key:
Type in all cases: functional
[1] = tested on: Digitaria sanguinalis; assay: Pre-emergence herbicidal activity against Digitaria sanguinalis (hairy crabgrass) assessed as growth inhibition at 1500 ai g/ha after 20 days by green house test
[2] = tested on: Echinochloa crus-galli; assay: Post-emergence herbicidal activity against Echinochloa crus-galli (barnyard grass) assessed as growth inhibition at 1500 ai g/ha after 20 days by green house test
[3] = tested on: Medicago sativa; assay: Post-emergence herbicidal activity against Medicago sativa (alfalfa) assessed as growth inhibition at 1500 ai g/ha after 20 days by green house test
[4] = tested on: Echinochloa crus-galli; assay: Pre-emergence herbicidal activity against Echinochloa crus-galli (barnyard grass) assessed as growth inhibition at 1500 ai g/ha after 20 days by green house test
[5] = tested on: Brassica rapa subsp. oleifera; assay: Post-emergence herbicidal activity against Brassica rapa subsp. oleifera Si Yue Man assessed as growth inhibition at 1500 ai g/ha after 20 days by green house test
[6] = tested on: Brassica rapa subsp. oleifera; assay: Pre-emergence herbicidal activity against Brassica rapa subsp. oleifera Si Yue Man assessed as growth inhibition at 1500 ai g/ha after 20 days by green house test
[7] = tested on: Amaranthus retroflexus; assay: Post-emergence herbicidal activity against Amaranthus retroflexus assessed as growth inhibition at 1500 ai g/ha after 20 days by green house test
[8] = tested on: Medicago sativa; assay: Pre-emergence herbicidal activity against Medicago sativa (alfalfa) assessed as growth inhibition at 1500 ai g/ha after 20 days by green house test
[9] = tested on: Amaranthus retroflexus; assay: Pre-emergence herbicidal activity against Amaranthus retroflexus assessed as growth inhibition at 1500 ai g/ha after 20 days by green house test
[10] = tested on: Digitaria sanguinalis; assay: Post-emergence herbicidal activity against Digitaria sanguinalis (hairy crabgrass) assessed as growth inhibition at 1500 ai g/ha after 20 days by green house test

| Compound | growth inhibition (GI) [1] | growth inhibition (GI) [2] | growth inhibition (GI) [3] | growth inhibition (GI) [4] | growth inhibition (GI) [5] | growth inhibition (GI) [6] | growth inhibition (GI) [7] | growth inhibition (GI) [8] | growth inhibition (GI) [9] | growth inhibition (GI) [10] |
| --- | --- | --- | --- | --- | --- | --- | --- | --- | --- | --- |
| COP(=O)(OC)C(C)OC(=O)COc1ccc(Cl)cc1[N+](=O)[O-] (stereo not given) | <=50% | <=50% | <=50% | <=50% | <=50% | <=50% | <=50% | <=50% | <=50% | <=50% |
| COP(=O)(COC(=O)COc1ccccc1)OC [(DIMETHOXYPHOSPHORYL)METHYL 2-PHENOXYACETATE] | <=50% | <=50% | <=50% | <=50% | <=50% | <=50% | <=50% | <=50% | <=50% | <=50% |
| COP(=O)(OC)C(OC(=O)COc1cccc(C)c1C)c1ccccc1 (stereo not given) | <=50% | 50% | 50% | 75% | 75% | 90% | <=50% | 75% | 50% | <=50% |
| COP(=O)(OC)C(OC(=O)COc1ccc(F)c(Cl)c1)C(Cl)(Cl)Cl (stereo not given) | 75% | 50% | 50% | 50% | 75% | <=50% | 90% | 50% | 50% | <=50% |
| COP(=O)(OC)C(OC(=O)COc1ccc(Cl)cc1Cl)C(Cl)(Cl)Cl (stereo not given) | 90% | 50% | 50% | 90% | 90% | 90% | 90% | 90% | 90% | 50% |
| COP(=O)(OC)C(OC(=O)COc1cccc(C)c1)c1ccccc1 (stereo not given) | <=50% | <=50% | 50% | <=50% | 50% | 75% | 50% | 75% | 75% | <=50% |
| COP(=O)(OC)C(OC(=O)COc1ccc(F)c(Cl)c1)c1cccc([N+](=O)[O-])c1 (stereo not given) | <=50% | 50% | 50% | 50% | 50% | <=50% | 75% | 50% | 50% | 75% |
| COP(=O)(OC)C(OC(=O)COc1ccc(Cl)cc1Cl)c1cccc(Br)c1 (stereo not given) | 90% | 50% | 90% | 50% | 90% | 90% | 90% | 90% | 90% | <=50% |
| COP(=O)(OC)C(OC(=O)COc1ccccc1[N+](=O)[O-])c1ccccc1 (stereo not given) | <=50% | <=50% | <=50% | <=50% | <=50% | <=50% | <=50% | <=50% | <=50% | <=50% |
